Values quoted from earlier work, collected in patent US6346251B1 (priority 1999, dated 2002).

Assays:
[1] = tested on: cancer; conditions: Phase II testing
[2] = tested on: human epidermoid cells, virally infected with HSV-2
[3] = tested on: human epidermoid cells

| SMILES | hematologic toxicity [1] | tumor response [1] | Trichothecene Concentrations, Protein Synthesis Inhibition 50% [2] [ng/mL] | Trichothecene Concentrations, Protein Synthesis Inhibition 80% (PIC80) [2] [ng/mL] | Trichothecene Concentrations, Protein Synthesis Inhibition 85% (PIC85) [2] [ng/mL] | Trichothecene Concentrations, Protein Synthesis Inhibition 90% (PIC90) [2] [ng/mL] | hyperactive protein synthesis inhibited [2] [%] | Trichothecene Concentrations, PIC100 max [3] [ng/mL] | concentrations that did not reduce cell viability [3] | nontoxic zone [3] [ng/mL] | safe level [3] [ng/mL] |
| --- | --- | --- | --- | --- | --- | --- | --- | --- | --- | --- | --- |
| CC(=O)OC[C@]12CCC(C)=C[C@H]1O[C@@H]1[C@H](O)[C@@H](OC(C)=O)[C@@]2(C)[C@]12CO2 [Anguidine] | considerable hematologic toxicity | low tumor response |  |  |  |  |  |  |  |  |  |
| CC(=O)OC[C@]12CCC(C)=C[C@H]1O[C@@H]1[C@H](O)[C@@H](OC(C)=O)[C@@]2(C)[C@]12CO2 [DAS] |  |  | 2.3 | 4.0 | 4.2 | 4.5 | ~99 | 200 | up to 200 ng/ml | < 200 | 200 |
